# From PubChem BioAssay AID488814 (NMMLSC, 2010)
# System: S. cerevisiae RPL19A-GFP strain, flow cytometry GFP, 3 h
# Experiment: TOR pathway reporter RPL19A-GFP modulators – cell-based, cherry pick 3, SAR, flow cytometry GFP, multiplex, dose response (AID 488814)
row,EC50 [µM],Compound
1,15.3,CC1=NNC(=O)/C1=C\c1cn(-c2ccccc2)nc1-c1ccc(F)cc1
2,14.7,Cc1ccc2c(Cl)cc(Cl)c(O)c2n1
3,0.876,Cc1ccc(NN2C(=O)C=C(c3ccccc3)C2=O)cc1
